Data from patent US8735414B2 (priority 2009, dated 2014).

Tests used:
[1] = system: bicistronic HCV replicon (replicon RNA, GenBank Accession No. AJ242654); assay: HCV Replicon Assay; assay type: cell-based; details: Hepatitis C virus, 72 h, read-out: Replicon IC50

Row | Structure (SMILES) | melting point | IC50 [1]
1 | CCc1cc2c(cc1F)c(C#N)c(-c1ccc(S(=O)(=O)N[C@@H](C)C(F)(F)F)cn1)n2-c1ncc(Cl)cn1 [compound 942, 6-[1-(5-chloropyrimidin-2-yl)-3-cyano-6-ethyl-5-fluoro-1H-indol-2-yl]-N-[(2S)-1,1,1-trifluoropropan-2-yl]pyridine-3-sulfonamide] | 222 to 229 °C | < 0.5 µM
2 | Cc1ccc2c(c1)c(C#N)c(-c1ncc(S(=O)(=O)NC(C)C)cn1)n2C1CCCCC1 [compound 200, 2-(3-cyano-1-cyclohexyl-5-methyl-1H-indol-2-yl)-N-(propan-2-yl)pyrimidine-5-sulfonamide] | 183 to 188 °C | 0.5 to 2 µM
3 | Cc1cc2c(cc1F)c(C#N)c(-c1ccc(S(=O)(=O)N[C@@H](C)C(F)(F)F)c(C)n1)n2C1CCCC1 [compound 868, 6-(3-cyano-1-cyclopentyl-5-fluoro-6-methyl-1H-indol-2-yl)-2-methyl-N-[(2S)-1,1,1-trifluoropropan-2-yl]pyridine-3-sulfonamide] | 206 to 211 °C | < 0.5 µM
4 | C[C@H](NS(=O)(=O)c1ccc(-c2c(C#N)c3cc(F)ccc3n2C2C=CCCC2)nc1)C(F)(F)F (stereo partly drawn) [compound 413, 6-[3-cyano-1-(cyclohex-2-en-1-yl)-5-fluoro-1H-indol-2-yl]-N-[(2S)-1,1,1-trifluoropropan-2-yl]pyridine-3-sulfonamide] | 186 to 187 °C | < 0.5 µM
5 | C[C@H](NS(=O)(=O)c1cnc(-c2c(C#N)c3ccc(OC(F)F)cc3n2CC2CC2)nc1)C(F)(F)F [compound 398, 2-[3-cyano-1-(cyclopropylmethyl)-6-(difluoromethoxy)-1H-indol-2-yl]-N-[(2S)-1,1,1-trifluoropropan-2-yl]pyrimidine-5-sulfonamide] | 211 to 212 °C | < 0.5 µM
6 | CCc1cc2c(cc1F)c(C#N)c(-c1ccc(S(=O)(=O)N[C@@H](C)C(F)(F)F)cn1)n2-c1ccc(C(F)(F)F)cc1 [compound 1006, 6-{3-cyano-6-ethyl-5-fluoro-1-[4-(trifluoromethyl)phenyl]-1H-indol-2-yl}-N-[(2S)-1,1,1-trifluoropropan-2-yl]pyridine-3-sulfonamide] | 276 to 282 °C | 0.5 to 2 µM
7 | CCc1cc2c(cc1F)c(C#N)c(-c1ccc(S(=O)(=O)N[C@@H](C)C(F)(F)F)cn1)n2-c1cnccn1 [compound 929, 6-[3-cyano-6-ethyl-5-fluoro-1-(pyrazin-2-yl)-1H-indol-2-yl]-N-[(2S)-1,1,1-trifluoropropan-2-yl]pyridine-3-sulfonamide] | 225 to 229 °C | < 0.5 µM
8 | C[C@H](NS(=O)(=O)c1cnc(-c2c(C#N)c3ccc(Cl)cc3n2-c2ccccn2)nc1)C(F)(F)F [compound 449] | 163 to 166 °C | < 0.5 µM
9 | CC(C)(C)NS(=O)(=O)c1ccc(-c2c(C#N)c3ccc(OC(F)F)cc3n2-c2ccccc2)nc1 [compound 624, N-tert-butyl-6-[3-cyano-6-(difluoromethoxy)-1-phenyl-1H-indol-2-yl]pyridine-3-sulfonamide] | 216 to 218 °C | < 0.5 µM
10 | Cc1ccc2c(C#N)c(-c3ncc(S(=O)(=O)N[C@H](C)C(F)(F)F)cn3)n(C3CCCC3)c2c1 [compound 182, 2-(3-cyano-1-cyclopentyl-6-methyl-1H-indol-2-yl)-N-[(2R)-1,1,1-trifluoropropan-2-yl]pyrimidine-5-sulfonamide] | 116 to 118 °C | < 0.5 µM
11 | Cc1cc2c(C#N)c(-c3ccc(S(=O)(=O)N[C@@H](C)C(F)(F)F)cn3)n(C3CCCC3)c2cc1Cl [compound 522, 6-(6-chloro-3-cyano-1-cyclopentyl-5-methyl-1H-indol-2-yl)-N-[(2S)-1,1,1-trifluoropropan-2-yl]pyridine-3-sulfonamide] | 186 to 187 °C | < 0.5 µM
